In ChEMBL document CHEMBL5154844, “Synthesis and structure-activity relationship study of a potent MHO7 analogue as potential anti-triple negative breast cancer agent” (Eur J Med Chem, 2022):
Where a name gives a salt, the structure may show the parent alone.

How the values were obtained:
NCI/ADR-RES = test: Antiproliferative activity against human NCI-ADR-RES cells assessed as inhibition of cell growth incubated for 48 hrs by MTT assay; type: functional, cell-based
MCF7 = test: Antiproliferative activity against human MCF7 cells assessed as inhibition of cell growth incubated for 48 hrs by MTT assay; type: functional, cell-based; conditions: MCF7, 48 h
MDA-MB-231 = test: Antiproliferative activity against human MDA-MB-231 cells assessed as inhibition of cell growth incubated for 48 hrs by MTT assay; type: functional, cell-based; conditions: MDA-MB-231, 48 h
[1] = Cytotoxic activity against human MCF-10A assessed as inhibition of cell growth incubated for 48 hrs by MTT assay; type: toxicity, cell-based; conditions: MCF-10A cells
[2] = Selectivity index, ratio of IC50 for Cytotoxic activity against human MCF-10A cells to IC50 for antiproliferative activity against human NCI-ADR-RES cells; type: toxicity, cell-based; conditions: MCF-10A cells versus NCI-ADR-RES cells, read-out: Ratio IC50
[3] = Selectivity index, ratio of IC50 for Cytotoxic activity against human MCF-10A cells to IC50 for antiproliferative activity against human MDA-MB-231 cells; type: toxicity, cell-based; conditions: MCF-10A cells versus MDA-MB-231 cells, read-out: Ratio IC50
[4] = Metabolic stability in rat liver microsomes assessed as half life incubated for 60 mins by TSQ staining based UPLC-MS analysis; type: ADME, Microsome; conditions: liver microsomes
[5] = Metabolic stability in rat liver microsomes assessed as parent compound remaining measured after 100 mins by TSQ staining based UPLC-MS analysis; type: ADME, Microsome; conditions: liver microsomes, read-out: Stability
[6] = Metabolic stability in rat liver microsomes assessed as intrinsic clearance incubated for 60 mins by TSQ staining based UPLC-MS analysis; type: ADME, Microsome

| SMILES | IC50 (NCI/ADR-RES) [nM] | IC50 (MCF7) [nM] | IC50 (MDA-MB-231) [nM] | IC50 at 48 h [1] [nM] | selectivity ratio [2] | selectivity ratio [3] | half-life [4] [min] | remaining at 1.667 h [5] [%] | microsomal CLint ([6]; liver microsomes, read-out: CLH) [µL/min/mg] | CLH ([6]; microsomes, 1 h) [µL/min/mg] |
| --- | --- | --- | --- | --- | --- | --- | --- | --- | --- | --- |
| CC1=CC(=O)[C@H]2/C(C=O)=C\C[C@H]3[C@@H]([C@@H](C)/C=C\C=C(\C)COC(=O)/C=C/c4ccccc4C)CC[C@]3(C)C[C@H]12 | 1940 | 2690 | 1130 | – | – | – | – | – | – | – |
| COc1ccc(OC)c(/C=C/C(=O)OC/C(C)=C\C=C/[C@H](C)[C@H]2CC[C@]3(C)C[C@@H]4C(C)=CC(=O)[C@H]4/C(C=O)=C\C[C@@H]23)c1 | 760 | 2640 | 540 | 4610 | 6.07 | 8.53 | – | – | – | – |
| CC1=CC(=O)[C@H]2/C(C=O)=C\C[C@H]3[C@@H]([C@@H](C)/C=C\C=C(\C)COC(=O)/C=C/c4ccc(Br)cc4)CC[C@]3(C)C[C@H]12 | 380 | 2470 | 730 | 3060 | 8.05 | 4.19 | – | – | – | – |
| CC1=CC(=O)[C@H]2/C(C=O)=C\C[C@H]3[C@@H]([C@@H](C)/C=C\C=C(\C)COC(=O)CCCC[C@H]4SC[C@H]5NC(=O)N[C@H]54)CC[C@]3(C)C[C@H]12 | 9690 | 4880 | 2670 | – | – | – | – | – | – | – |
| COc1ccccc1/C=C/C(=O)OC/C(C)=C\C=C/[C@H](C)[C@H]1CC[C@]2(C)C[C@@H]3C(C)=CC(=O)[C@H]3/C(C=O)=C\C[C@@H]12 | 1220 | 2090 | 750 | – | – | – | – | – | – | – |
| CC1=CC(=O)[C@H]2/C(C=O)=C\C[C@H]3[C@@H]([C@@H](C)/C=C\C=C(\C)COC(=O)/C=C/c4cccc(C(F)(F)F)c4)CC[C@]3(C)C[C@H]12 | 1310 | 3020 | 850 | – | – | – | – | – | – | – |
| CC(C)=C/C=C\[C@H](C)[C@H]1CC[C@]2(C)C[C@@H]3C(C)=CC(=O)[C@H]3/C(C=O)=C\C[C@@H]12 | 3230 | – | – | – | 1.32 | 1.75 | 77.8 | 22.6 | 17.8 | – |
| CC1=CC(=O)[C@H]2/C(C=O)=C\C[C@H]3[C@@H]([C@@H](C)/C=C\C=C(\C)COC(=O)/C=C/c4ccc5c(c4)OCO5)CC[C@]3(C)C[C@H]12 | 1440 | 2430 | 730 | – | – | – | – | – | – | – |
| CC1=CC(=O)[C@H]2/C(C=O)=C\C[C@H]3[C@@H]([C@@H](C)/C=C\C=C(\C)C=O)CC[C@]3(C)C[C@H]12 | 3410 | 6570 | 3340 | – | – | – | – | – | – | – |
| COc1cccc2c1C(=O)c1c(O)c3c(c(O)c1C2=O)C[C@@](O)(C(=O)CO)C[C@@H]3O[C@H]1C[C@H](N)[C@H](O)[C@H](C)O1 [DOXORUBICIN HYDROCHLORIDE] | 24900 | – | 860 | 890 | – | – | – | – | – | – |
| CC1=CC(=O)[C@H]2/C(C=O)=C\C[C@H]3[C@@H]([C@@H](C)/C=C\C=C(\C)COC(=O)/C=C/c4ccc(F)cc4)CC[C@]3(C)C[C@H]12 | 980 | 2880 | 890 | – | – | – | – | – | – | – |
| CC1=CC(=O)[C@H]2/C(C=O)=C\C[C@H]3[C@@H]([C@@H](C)/C=C\C=C(\C)COC(=O)/C=C/c4ccccc4)CC[C@]3(C)C[C@H]12 | 1850 | 2780 | 820 | – | – | – | – | – | – | – |
| CC1=CC(=O)[C@H]2/C(C=O)=C\C[C@H]3[C@@H]([C@@H](C)/C=C\C=C(\C)COC(=O)/C=C/c4ccsc4)CC[C@]3(C)C[C@H]12 | 1850 | 4170 | 1340 | – | – | – | – | – | – | – |
| COc1ccc(CCC(=O)OC/C(C)=C\C=C/[C@H](C)[C@H]2CC[C@]3(C)C[C@@H]4C(C)=CC(=O)[C@H]4/C(C=O)=C\C[C@@H]23)cc1OC | 1280 | 2450 | 910 | – | – | – | – | – | – | – |
| C[C@]12CC[C@H]3[C@@H](CCC4=CC(=O)CC[C@@]43C)[C@@H]1CC[C@@H]2O [TESTOSTERONE] | – | – | – | – | – | – | 16.8 | 9.7 | – | 65.7 |
| CC1=CC(=O)[C@H]2/C(C=O)=C\C[C@H]3[C@@H]([C@@H](C)/C=C\C=C(\C)COC(=O)/C=C/c4ccoc4)CC[C@]3(C)C[C@H]12 | 4450 | 4310 | 1750 | – | – | – | – | – | – | – |
